Data as given in patent publication US9856268B2, “Lactam kinase inhibitors” (G1 Therapeutics, Inc., priority 2012, dated 2018).

Key:
MNK2 = MNK2 (Homo sapiens, UniProt Q9HBH9); test: Kinase electrophoretic mobility shift assay, MNK2; assay type: biochemical; settings: compounds tested at 10 μM, average of n = 2, ATP at apparent Km; read-out: MNK2 activity (percent inhibition)
Protocol: (§1) Kinase activity is measured in vitro using electrophoretic mobility shift assay. The kinase reactions are assembled in 384 well plates in total volume of 25 μL. The reactions comprise: purified recombinant kinase enzyme, test compound, ATP (at apparent Km for each kinase), and fluorescently labeled peptide substrate. The reaction buffer composed of: 100 mM HEPES, pH7.5; 5 mM MgCl2; 1 mM DTT; 0.1% bovine serum albumin; 0.01% Triton X-100, and 1% DMSO (from compound). The reactions were incubated at room temperature for indicated time and quenched by addition of 45 μL of termination buffer (100 mM HEPES pH7.5; 0.01% Triton X-100; 30 mM EDTA). Substrate and product peptides in each sample were electrophoretically separated and detected using 12 channel LabChip3000® microfluidic capillary electrophoresis instrument (Caliper Life Sciences). The change in the relative fluorescence intensities of substrate and product peaks (reflecting enzyme activity) was measured. Capillary electrophoregramms were analyzed using HTS Well Analyzer software (Caliper Life Sciences). The kinase activity in each sample was determined as “product to sum” ratio (PSR):P/(S+P), where P is the peak height of the product peptide and S is the peak height of the substrate peptide. Negative control samples (0%-inhibition in the absence of inhibitor) and positive control samples (100%-inhibition, in the presence of 20 mM EDTA) were assembled in replicates of four and were used to calculate %-inhibition values for each compound at each concentration. Percent inhibition (Pinh) was determined using following equation: Pinh=(PSR0%−PSRinh)/(PSR0%−PSR100%)*100, where PSRinh is the product-sum ratio in the presence of inhibitor, PSR0% is the average product-sum ration in the absence of inhibitor and PSR100% is the average product-sum ratio in 100%-inhibition control samples. The IC50 values of reference inhibitors were determined by fitting the inhibition curves by a 4 parameter sigmoid dose-response model using XLfit 4 software (IDBS).

FMS = FMS (Homo sapiens, UniProt P07333); test: Kinase electrophoretic mobility shift assay, FMS; assay type: biochemical; settings: compounds tested at 10 μM, average of n = 2, ATP at apparent Km; read-out: FMS activity (percent inhibition)
Sequence of FMS (P07333 20-972, species assumed): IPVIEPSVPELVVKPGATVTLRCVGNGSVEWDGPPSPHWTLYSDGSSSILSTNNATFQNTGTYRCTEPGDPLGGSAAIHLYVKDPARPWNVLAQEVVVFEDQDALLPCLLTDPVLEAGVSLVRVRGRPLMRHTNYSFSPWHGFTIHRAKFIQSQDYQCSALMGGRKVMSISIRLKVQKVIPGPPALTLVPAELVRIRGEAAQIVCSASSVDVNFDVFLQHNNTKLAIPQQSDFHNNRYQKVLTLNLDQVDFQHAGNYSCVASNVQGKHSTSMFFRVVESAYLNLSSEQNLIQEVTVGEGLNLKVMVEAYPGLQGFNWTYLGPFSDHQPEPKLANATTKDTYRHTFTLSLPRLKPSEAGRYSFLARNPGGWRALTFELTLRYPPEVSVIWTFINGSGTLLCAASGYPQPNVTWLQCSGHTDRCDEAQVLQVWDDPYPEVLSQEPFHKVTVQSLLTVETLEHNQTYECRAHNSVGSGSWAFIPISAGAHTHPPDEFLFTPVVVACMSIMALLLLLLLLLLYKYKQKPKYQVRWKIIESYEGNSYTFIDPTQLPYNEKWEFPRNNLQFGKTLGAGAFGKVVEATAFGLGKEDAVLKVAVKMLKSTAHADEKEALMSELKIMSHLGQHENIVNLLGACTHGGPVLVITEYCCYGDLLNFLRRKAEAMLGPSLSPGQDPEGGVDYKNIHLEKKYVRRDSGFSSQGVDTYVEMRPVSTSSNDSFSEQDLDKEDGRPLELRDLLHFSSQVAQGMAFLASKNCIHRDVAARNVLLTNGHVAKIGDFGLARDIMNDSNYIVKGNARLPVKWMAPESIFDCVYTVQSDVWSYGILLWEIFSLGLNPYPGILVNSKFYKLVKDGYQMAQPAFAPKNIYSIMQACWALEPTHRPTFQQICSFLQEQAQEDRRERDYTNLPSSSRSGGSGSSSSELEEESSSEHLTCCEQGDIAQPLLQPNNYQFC
Protocol: as §1

JNK2 = JNK2 (Homo sapiens, UniProt P45984); test: Kinase electrophoretic mobility shift assay, JNK2; assay type: biochemical; settings: compounds tested at 10 μM, average of n = 2, ATP at apparent Km; read-out: JNK2 activity (percent inhibition)
Sequence of JNK2 (P45984 whole entry, species assumed): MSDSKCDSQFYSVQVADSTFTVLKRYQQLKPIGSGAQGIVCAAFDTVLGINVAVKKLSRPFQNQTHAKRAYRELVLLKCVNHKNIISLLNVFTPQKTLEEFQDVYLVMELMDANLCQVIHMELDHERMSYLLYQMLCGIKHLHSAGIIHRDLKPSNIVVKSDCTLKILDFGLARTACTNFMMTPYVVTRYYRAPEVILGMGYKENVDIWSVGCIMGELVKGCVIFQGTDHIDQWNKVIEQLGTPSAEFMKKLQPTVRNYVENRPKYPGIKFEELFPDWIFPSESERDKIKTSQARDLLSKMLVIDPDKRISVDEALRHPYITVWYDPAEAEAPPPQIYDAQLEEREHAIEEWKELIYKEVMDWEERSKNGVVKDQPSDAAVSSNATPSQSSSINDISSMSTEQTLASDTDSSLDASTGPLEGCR
Protocol: as §1

HIPK4 = biological target: T1, HIPK4 (Homo sapiens, UniProt Q8NE63); test: Kinase electrophoretic mobility shift assay, HIPK4; assay type: biochemical; settings: compounds tested at 10 μM, average of n = 2, ATP at apparent Km; read-out: HIPK4 activity (percent inhibition)
T1 sequence (Q8NE63 1-616): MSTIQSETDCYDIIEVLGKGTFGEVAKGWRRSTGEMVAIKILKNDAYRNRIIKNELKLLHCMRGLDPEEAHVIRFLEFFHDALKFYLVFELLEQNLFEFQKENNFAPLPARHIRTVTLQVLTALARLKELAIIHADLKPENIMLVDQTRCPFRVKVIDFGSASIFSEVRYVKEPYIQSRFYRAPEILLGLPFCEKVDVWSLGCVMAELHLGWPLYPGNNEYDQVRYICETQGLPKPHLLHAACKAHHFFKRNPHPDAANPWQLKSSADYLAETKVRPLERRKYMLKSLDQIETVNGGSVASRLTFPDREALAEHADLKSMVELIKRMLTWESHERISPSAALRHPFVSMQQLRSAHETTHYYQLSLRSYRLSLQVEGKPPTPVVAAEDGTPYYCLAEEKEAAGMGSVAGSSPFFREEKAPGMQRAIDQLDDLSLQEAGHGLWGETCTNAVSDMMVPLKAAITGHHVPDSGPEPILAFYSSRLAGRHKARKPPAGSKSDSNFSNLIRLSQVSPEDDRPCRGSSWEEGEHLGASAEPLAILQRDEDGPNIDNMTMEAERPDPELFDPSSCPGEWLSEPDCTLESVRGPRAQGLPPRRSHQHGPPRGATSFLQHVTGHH
Protocol: as §1

P38 beta = P38 beta (Homo sapiens, UniProt Q15759); test: Kinase electrophoretic mobility shift assay, P38 beta; assay type: biochemical; settings: compounds tested at 10 μM, average of n = 2, ATP at apparent Km; read-out: P38 beta activity (percent inhibition)
Sequence of P38 beta (Q15759 whole entry): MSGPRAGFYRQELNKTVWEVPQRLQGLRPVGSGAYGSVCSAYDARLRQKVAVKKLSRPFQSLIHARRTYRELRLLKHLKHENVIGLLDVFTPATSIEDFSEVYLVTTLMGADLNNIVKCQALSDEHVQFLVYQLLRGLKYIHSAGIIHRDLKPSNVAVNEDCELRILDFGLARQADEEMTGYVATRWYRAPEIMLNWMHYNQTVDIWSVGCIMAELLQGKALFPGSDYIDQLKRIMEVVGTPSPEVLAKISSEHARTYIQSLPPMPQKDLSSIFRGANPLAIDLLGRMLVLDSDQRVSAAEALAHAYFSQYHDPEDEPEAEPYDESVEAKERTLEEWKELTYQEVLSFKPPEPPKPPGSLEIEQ
Protocol: as §1

Aurora -A = biological target: T2, Aurora -A (Homo sapiens, UniProt O14965); test: Kinase electrophoretic mobility shift assay, Aurora -A; assay type: biochemical; settings: compounds tested at 10 μM, average of n = 2, ATP at apparent Km; read-out: Aurora -A activity (percent inhibition)
T2 sequence (O14965 1-403): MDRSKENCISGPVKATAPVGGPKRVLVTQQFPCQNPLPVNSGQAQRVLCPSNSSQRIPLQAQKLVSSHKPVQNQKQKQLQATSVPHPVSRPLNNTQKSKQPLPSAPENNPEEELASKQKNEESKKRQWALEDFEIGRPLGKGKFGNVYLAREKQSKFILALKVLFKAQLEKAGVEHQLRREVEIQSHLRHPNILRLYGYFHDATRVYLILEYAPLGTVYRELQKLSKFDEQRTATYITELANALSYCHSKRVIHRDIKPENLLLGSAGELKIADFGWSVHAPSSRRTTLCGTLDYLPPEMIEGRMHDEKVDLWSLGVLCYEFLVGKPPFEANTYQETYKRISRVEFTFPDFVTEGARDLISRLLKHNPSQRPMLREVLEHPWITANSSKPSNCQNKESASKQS
Protocol: as §1

GSK-3 beta = GSK-3 beta (Homo sapiens, UniProt P49841); test: Kinase electrophoretic mobility shift assay, GSK-3 beta; assay type: biochemical; settings: compounds tested at 10 μM, average of n = 2, ATP at apparent Km; read-out: GSK-3 beta activity (percent inhibition)
Sequence of GSK-3 beta (P49841 whole entry, species assumed): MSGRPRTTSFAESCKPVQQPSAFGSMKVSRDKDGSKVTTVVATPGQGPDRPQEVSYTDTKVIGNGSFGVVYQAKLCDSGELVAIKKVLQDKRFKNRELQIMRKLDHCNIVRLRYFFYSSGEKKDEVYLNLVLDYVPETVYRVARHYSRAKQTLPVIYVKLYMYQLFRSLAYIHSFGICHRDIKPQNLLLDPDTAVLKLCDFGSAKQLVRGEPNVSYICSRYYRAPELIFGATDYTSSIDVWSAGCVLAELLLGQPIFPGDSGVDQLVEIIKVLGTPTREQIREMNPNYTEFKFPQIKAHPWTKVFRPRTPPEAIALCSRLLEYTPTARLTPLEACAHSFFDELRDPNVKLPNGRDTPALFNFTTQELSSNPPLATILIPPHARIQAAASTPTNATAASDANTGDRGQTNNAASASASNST
Protocol: as §1

MAPK3 = MAPK3 (Homo sapiens, UniProt P27361); test: Kinase electrophoretic mobility shift assay, MAPK3; assay type: biochemical; settings: compounds tested at 10 μM, average of n = 2, ATP at apparent Km; read-out: MAPK3 activity (percent inhibition)
Sequence of MAPK3 (P27361 whole entry): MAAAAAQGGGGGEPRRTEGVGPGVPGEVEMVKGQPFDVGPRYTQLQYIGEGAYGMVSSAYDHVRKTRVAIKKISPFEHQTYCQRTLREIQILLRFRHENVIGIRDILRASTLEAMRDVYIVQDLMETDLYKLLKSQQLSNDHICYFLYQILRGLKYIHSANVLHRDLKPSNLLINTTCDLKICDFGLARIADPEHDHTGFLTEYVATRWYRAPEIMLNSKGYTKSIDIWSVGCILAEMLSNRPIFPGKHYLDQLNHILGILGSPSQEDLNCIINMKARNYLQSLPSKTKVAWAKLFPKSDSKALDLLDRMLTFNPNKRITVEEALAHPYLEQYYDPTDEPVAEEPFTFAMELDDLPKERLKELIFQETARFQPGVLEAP
Protocol: as §1

DYRK3 = biological target: T3, DYRK3 (Homo sapiens, UniProt O43781); test: Kinase electrophoretic mobility shift assay, DYRK3; assay type: biochemical; settings: compounds tested at 10 μM, average of n = 2, ATP at apparent Km; read-out: DYRK3 activity (percent inhibition)
T3 sequence (O43781 1-588): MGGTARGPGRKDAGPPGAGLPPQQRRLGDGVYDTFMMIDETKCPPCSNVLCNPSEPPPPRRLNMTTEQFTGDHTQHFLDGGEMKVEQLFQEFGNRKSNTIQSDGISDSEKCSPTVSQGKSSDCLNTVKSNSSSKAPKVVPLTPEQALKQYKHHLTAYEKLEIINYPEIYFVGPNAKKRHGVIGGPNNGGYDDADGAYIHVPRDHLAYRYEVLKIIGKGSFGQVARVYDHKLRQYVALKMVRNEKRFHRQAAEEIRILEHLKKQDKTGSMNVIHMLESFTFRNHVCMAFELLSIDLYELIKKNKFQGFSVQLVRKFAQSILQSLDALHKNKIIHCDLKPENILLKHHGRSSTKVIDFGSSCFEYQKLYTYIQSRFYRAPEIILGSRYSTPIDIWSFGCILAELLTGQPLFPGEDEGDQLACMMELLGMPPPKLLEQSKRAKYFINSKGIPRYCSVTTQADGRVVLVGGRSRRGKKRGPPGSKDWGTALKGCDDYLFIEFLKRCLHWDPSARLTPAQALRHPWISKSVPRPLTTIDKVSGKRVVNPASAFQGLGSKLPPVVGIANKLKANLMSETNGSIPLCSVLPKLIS
Protocol: as §1

[1] = tested on: treatment-refractory metastatic colorectal cancer; settings: single agent, patients with treatment-refractory metastatic colorectal cancer, phase III; cited from earlier work

Sequence of MNK2 (Q9HBH9 whole entry, species assumed): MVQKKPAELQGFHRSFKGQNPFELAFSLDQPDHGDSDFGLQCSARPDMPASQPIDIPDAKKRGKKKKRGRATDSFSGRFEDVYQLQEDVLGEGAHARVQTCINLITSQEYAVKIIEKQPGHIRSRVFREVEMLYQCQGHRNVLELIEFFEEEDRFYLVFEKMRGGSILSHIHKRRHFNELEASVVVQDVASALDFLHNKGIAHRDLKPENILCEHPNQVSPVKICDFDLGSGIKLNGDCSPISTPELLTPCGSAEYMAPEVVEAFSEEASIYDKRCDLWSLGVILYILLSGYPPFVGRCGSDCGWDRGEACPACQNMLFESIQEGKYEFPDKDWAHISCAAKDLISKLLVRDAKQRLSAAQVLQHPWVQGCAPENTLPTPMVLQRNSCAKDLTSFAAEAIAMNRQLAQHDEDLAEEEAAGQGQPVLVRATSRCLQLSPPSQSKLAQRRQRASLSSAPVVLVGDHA

Compound `Cc1ccccc1-c1c2n(c3nc(Nc4ccc(N5CCOCC5)cc4)ncc13)CCNC2=O` [Compd 1] has an inhibition at 10 µM (MNK2) of less than 50%, an inhibition at 10 µM (FMS) of less than 50% and an inhibition at 10 µM (JNK2) of less than 50%. The inhibition at 10 µM (HIPK4) was less than 50%, the inhibition at 10 µM (P38 beta) was less than 50% and the inhibition at 10 µM (Aurora -A) was less than 50%. The inhibition at 10 µM (GSK-3 beta) was less than 50%, the inhibition at 10 µM (MAPK3) was less than 50% and the inhibition at 10 µM (DYRK3) was less than 50%.

With `Cc1ccccc1-c1c2n(c3nc(N[C@H]4CC[C@H](O)CC4)ncc13)CCNC2=O` [Compd 2] the inhibition at 10 µM (MNK2) was less than 50%, the inhibition at 10 µM (FMS) was less than 50% and the inhibition at 10 µM (JNK2) was 71 to 90%. The inhibition at 10 µM (HIPK4) was less than 50%, the inhibition at 10 µM (P38 beta) was less than 50% and the inhibition at 10 µM (Aurora -A) was less than 50%. The inhibition at 10 µM (GSK-3 beta) was less than 50%, the inhibition at 10 µM (MAPK3) was 50 to 70% and the inhibition at 10 µM (DYRK3) was less than 50%.

Work on `O=C1NCCn2c1cc1cnc(N[C@H]3CC[C@H](O)CC3)nc12` [Compd 3] yielded an inhibition at 10 µM (MNK2) of less than 50%, an inhibition at 10 µM (FMS) of less than 50% and an inhibition at 10 µM (JNK2) greater than 90%. For the same compound, the inhibition at 10 µM (HIPK4) was 71 to 90%, the inhibition at 10 µM (P38 beta) was less than 50% and the inhibition at 10 µM (Aurora -A) was less than 50%. It also gave an inhibition at 10 µM (GSK-3 beta) of 71 to 90%, an inhibition at 10 µM (MAPK3) of 71 to 90% and an inhibition at 10 µM (DYRK3) of 71 to 90%.

Work on `CC1(C)CNC(=O)c2cc3cnc(N[C@H]4CC[C@H](O)CC4)nc3n21` [Compd 4] yielded an inhibition at 10 µM (MNK2) of 71 to 90%, an inhibition at 10 µM (FMS) greater than 90% and an inhibition at 10 µM (JNK2) greater than 90%. It also gave an inhibition at 10 µM (HIPK4) greater than 90%, an inhibition at 10 µM (P38 beta) of 50 to 70% and an inhibition at 10 µM (Aurora -A) of 50 to 70%. It also gave an inhibition at 10 µM (GSK-3 beta) greater than 90%, an inhibition at 10 µM (MAPK3) of 71 to 90% and an inhibition at 10 µM (DYRK3) of 71 to 90%.

Work on `CCC1Cn2c(cc3cnc(N[C@H]4CC[C@H](O)CC4)nc32)C(=O)N1` (some centres unmarked) [Compd 5] yielded an inhibition at 10 µM (MNK2) of 50 to 70%, an inhibition at 10 µM (FMS) of 71 to 90% and an inhibition at 10 µM (JNK2) greater than 90%. The inhibition at 10 µM (HIPK4) was greater than 90%, the inhibition at 10 µM (P38 beta) was 50 to 70% and the inhibition at 10 µM (Aurora -A) was less than 50%. It also gave an inhibition at 10 µM (GSK-3 beta) greater than 90%, an inhibition at 10 µM (MAPK3) of 71 to 90% and an inhibition at 10 µM (DYRK3) of 71 to 90%.

With `O=C1NC2(CCCC2)Cn2c1cc1cnc(N[C@H]3CC[C@H](O)CC3)nc12` [Compd 6] the inhibition at 10 µM (MNK2) was 50 to 70%, the inhibition at 10 µM (FMS) was 50 to 70% and the inhibition at 10 µM (JNK2) was greater than 90%. The inhibition at 10 µM (HIPK4) was greater than 90%, the inhibition at 10 µM (P38 beta) was 50 to 70% and the inhibition at 10 µM (Aurora -A) was 50 to 70%. The inhibition at 10 µM (GSK-3 beta) was greater than 90%, the inhibition at 10 µM (MAPK3) was greater than 90% and the inhibition at 10 µM (DYRK3) was 71 to 90%.

For `O=C1NCC2(CCCC2)n2c1cc1cnc(N[C@H]3CC[C@H](O)CC3)nc12` [Compd 7], the inhibition at 10 µM (MNK2) was 71 to 90%, the inhibition at 10 µM (FMS) was 71 to 90% and the inhibition at 10 µM (JNK2) was greater than 90%. The inhibition at 10 µM (HIPK4) was greater than 90%, the inhibition at 10 µM (P38 beta) was 71 to 90% and the inhibition at 10 µM (Aurora -A) was greater than 90%. It also gave an inhibition at 10 µM (GSK-3 beta) greater than 90%, an inhibition at 10 µM (MAPK3) greater than 90% and an inhibition at 10 µM (DYRK3) greater than 90%.

In the case of `CNC(=O)c1cc(Oc2ccc(NC(=O)Nc3ccc(Cl)c(C(F)(F)F)c3)c(F)c2)ccn1` [regorafenib], the disease progression [1] is listed as “delayed disease progression” and the overall survival [1] is listed as “significantly improved overall survival”.
